Data on two molecules can be found in patent US9539336B2, “Sialic acid derivatives” (priority 2012, dated 2017).

In assay [1] the target is T1, CD22 (Siglec-2) (Homo sapiens, UniProt P20273).
T1 sequence (P20273 20-847): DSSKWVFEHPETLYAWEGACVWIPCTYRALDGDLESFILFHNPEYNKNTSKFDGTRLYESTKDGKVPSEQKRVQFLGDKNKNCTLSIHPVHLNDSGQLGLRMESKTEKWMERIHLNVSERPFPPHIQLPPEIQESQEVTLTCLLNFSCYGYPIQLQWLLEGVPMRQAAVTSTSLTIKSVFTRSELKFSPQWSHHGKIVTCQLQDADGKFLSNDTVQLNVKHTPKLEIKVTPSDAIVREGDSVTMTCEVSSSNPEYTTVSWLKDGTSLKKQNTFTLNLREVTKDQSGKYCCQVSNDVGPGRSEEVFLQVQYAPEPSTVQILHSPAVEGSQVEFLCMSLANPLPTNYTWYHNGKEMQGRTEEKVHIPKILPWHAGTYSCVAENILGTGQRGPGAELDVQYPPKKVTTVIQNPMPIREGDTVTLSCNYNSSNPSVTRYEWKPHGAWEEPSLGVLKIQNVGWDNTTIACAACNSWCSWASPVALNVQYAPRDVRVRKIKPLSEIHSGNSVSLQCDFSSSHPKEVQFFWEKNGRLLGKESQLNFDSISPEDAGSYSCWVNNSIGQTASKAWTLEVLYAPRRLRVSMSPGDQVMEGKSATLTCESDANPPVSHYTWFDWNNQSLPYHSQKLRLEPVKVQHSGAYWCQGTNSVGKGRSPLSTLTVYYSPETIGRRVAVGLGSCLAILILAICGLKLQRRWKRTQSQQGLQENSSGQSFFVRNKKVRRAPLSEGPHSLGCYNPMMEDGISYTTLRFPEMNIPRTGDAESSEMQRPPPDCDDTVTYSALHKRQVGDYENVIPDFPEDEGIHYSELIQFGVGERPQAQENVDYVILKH
Conditions: Table II; affinity to CD22, BPC NeuAc = 1; cited from earlier work.

Assay [2] deals with T1, CD22 (Siglec-2). The assay is described as follows: New assay: displacement of biotin conjugate 35 from sialidase-treated Daudi cells, measured by FACS. The format is binding. Also on record: endogenous in cells; host or cells: Daudi (human B cell lymphoma line). The conditions noted are these: Table II, IC50 values converted into rIP, BPC NeuAc = 1, 2 μmolar substance 35. The method, then:
In order to be able to determine the affinity of the novel derivatives to CD22, a new assay was developed. For this assay, compound 35 (conjugate of a sialic acid derivative of the formula (I) and biotin) was prepared.
To determine the affinity of the compound of the formula (I), approximately 2×10^8 cells of the human B cell lymphoma line “Daudi” were incubated with sialidase (A. ureafaciens) for 1 h at 37° C. Subsequently, the enzyme was blocked with 1.5 mM 2,3-dehydroNeu5Ac and the cells were washed twice with PBS. Batches of 1-2×10^6 cells were transferred to sample vials and incubated on ice for 15 min with serial concentrations (10-fold dilutions) of the substance to be measured (inhibitor) and then for 20 min with 2 μmolar substance 35. The reaction volume was 50 μl. After washing with PBS, the sample was incubated for 15 min with Streptavidin-PE in the dark, then washed and the amount of substance 35 bound via Streptavadin-PE was measured by FACS. For the determination of 0% displacement of substance 35, cells without inhibitor were measured. For the determination of 100% displacement, cells were measured without substance 35 and without inhibitor. 4 substances and one reference substance were measured per assay. The IC50 values determined in each assay were subsequently converted into rIP values. For this purpose, substance 46 served as reference. […]
(Flow cytometry measures light scatter and fluorescence of single cells or particles in a stream.)

In the case of `COC(=O)CCCCCO[C@@H]1O[C@H](CO)[C@@H](O[C@@H]2O[C@H](CO[C@]3(C(=O)[O-])C[C@H](O)[C@@H](NC(C)=O)[C@H]([C@H](O)[C@H](O)CNC(=O)c4ccc(-c5ccccc5)cc4)O3)[C@H](O)[C@H](O)[C@H]2O)[C@H](O)[C@H]1NC(C)=O.[Na+]` [BPC NeuAc- LN], at CD22 (Siglec-2) [1], the “rIP (Literature assay)” value is given as 15.9. Consider `CO[C@]1(C(=O)[O-])C[C@H](O)[C@@H](NC(C)=O)[C@H]([C@H](O)[C@H](O)CNC(=O)c2ccc(-c3ccccc3)cc2)O1.[Na+]` [BPC NeuAc], for which the “rIP (Literature assay)” value at CD22 (Siglec-2) [1] is 1. At CD22 (Siglec-2) [2], the “rIP (New assay)” value amounted to 1.
